Experimental data reported in ChEMBL document CHEMBL1127095, “Pharmacology of (2R, 4R, 5S)-2-amino-4,5-(1,2-cyclohexyl)-7-phosphonoheptanoic acid (NPC 17742); a selective, systemically active, competitive NMDA antagonist” (Bioorg Med Chem Lett, 1993).

Tests used:
Mus musculus [1] = experiment: Tested for the ability to inhibit the NMDA induced (250mg/Kg, intraperitoneal) seizures in male CF-1 mice when given 30 min prior to NMDA (intraperitoneal); assay type: functional; conditions: ip
Mus musculus [2] = experiment: Tested for the ability to inhibit the NMDA induced (250mg/Kg, intraperitoneally) seizures in male CF-1 mice given 15 min prior to NMDA (intracerebroventricularly); assay type: functional
Glutamate NMDA receptor = experiment: Tested for the ability to inhibit the specific binding of [3H]-CGS- 19755 to NMDA recognition sites on rat brain membranes; assay type: cell membranes, Membrane
Rattus norvegicus [3] = experiment: Tested for the paradigm of drug-discrimination assay (NPC 17742 (4 mg/Kg) from saline) in rats by intraperitoneal administration; assay type: functional; conditions: ip
Rattus norvegicus [4] = experiment: Tested for the paradigm of drug-discrimination assay in rats by intraperitoneal administration.; assay type: functional; conditions: ip
Rattus norvegicus [5] = experiment: Tested for the paradigm of drug-discrimination assay (NPC 17742 (4 mg/Kg; i.p.) from saline) in rat by intraperitoneal administration; assay type: functional; conditions: ip
Rattus norvegicus [6] = experiment: Tested for the paradigm of drug-discrimination assay in rat by intraperitoneal administration; assay type: functional; conditions: ip
Mus musculus [7] = experiment: Tested for the ability to inhibit the […] induced seizures (ip administration); assay type: functional
Mus musculus [8] = species: Mus musculus; experiment: Tested for the ability to inhibit the maximal electroshock induced seizures in mice; assay type: functional
[9] = Tested for the lethal dose by intraperitoneal administration; assay type: ADME; conditions: mouse, ip
Mus musculus [10] = species: Mus musculus; experiment: Tested for the ability to inhibit the pentylenetetrazole seizures in mice; assay type: functional
Rattus norvegicus [11] = experiment: Tested for the paradigm of drug-discrimination assay in rats by intraperitoneal administration; assay type: functional; conditions: ip
Rodentia sp. = experiment: Tested for the ability to inhibit the cocaine-induced seizures in rodents; assay type: functional

Structure (SMILES)	IC50 (Glutamate NMDA receptor) [nM]	ED50 (Mus musculus [1]) [mg/kg]	ED50 (Mus musculus [2]) [nmol]	also measured
N[C@@H](C[C@@H]1CCCC[C@@H]1CCP(=O)(O)O)C(=O)O	2400	32	8.5	
N[C@@H](C[C@H]1CCCC[C@H]1CCP(=O)(O)O)C(=O)O	2600	40	44.6	
NC(CC1CCCCC1CCP(=O)(O)O)C(=O)O (stereo not given)				ED50 (Rattus norvegicus [3]): 8.9 mg/kg; ED50 (Rattus norvegicus [4]): 18.1 mg/kg
N[C@H](C[C@H]1CCCCC1CCP(=O)(O)O)C(=O)O (single isomer, unassigned)	270	1.05	0.28	ED50 (Rattus norvegicus [5]): 1.9 mg/kg; ED50 (Rattus norvegicus [6]): 2.1 mg/kg; ED50 (Mus musculus [7]): 4.5 mg/kg; ED50 (Mus musculus [8]): 13 mg/kg; LD50 [9]: > 1000 mg/kg; ED50 (Mus musculus [10]): 4.5 mg/kg
O=C(O)[C@@H]1C[C@H](CP(=O)(O)O)CCN1 (single isomer, unassigned) [SELFOTEL]	87	2.6	0.19	ED50 (Rattus norvegicus [11]): 2.3 mg/kg
NC(C[C@@H]1CCCC[C@H]1CCP(=O)(O)O)C(=O)O (stereo in doubt; (+))	28000		49	
CC(=CC(N)C(=O)O)CP(=O)(O)O (stereo not given) [CGP-37849]				ED50 (Rodentia sp.): 0.1 mg/kg; ED50 (Rattus norvegicus [4]): 0.8 mg/kg
O=C(O)[C@H]1CN(C/C=C/P(=O)(O)O)CCN1 [MIDAFOTEL]				ED50 (Rattus norvegicus [4]): 0.8 mg/kg

Further lines, with some results ahead:

IC50 (Glutamate NMDA receptor) [nM]	Structure (SMILES)	ED50 (Mus musculus [1]) [mg/kg]	ED50 (Mus musculus [2]) [nmol]	also measured
5600	N[C@H](C[C@@H]1CCCC[C@@H]1CCP(=O)(O)O)C(=O)O	33	8.5	
190	O=C(O)C1CN(CCCP(=O)(O)O)CCN1 (racemic)	2.2	1.2	
4050	NC(C[C@@H]1CCCC[C@H]1CCP(=O)(O)O)C(=O)O (stereo in doubt; (-))	> 100	20	
